We go through 16 molecules from ChEMBL document CHEMBL1135579, “Serine-threonine protein phosphatase inhibitors: development of potential therapeutic strategies” (J Med Chem, 2002).

Test [1] in a line: Inhibition of growth after 72 hr continuous exposure to test compounds in Colon HCT 116 tumor cell lines. The class given is functional. The conditions noted are these: Homo sapiens, HCT-116, 72 h.
Test [2] is described as follows: Inhibition of growth after 72 hr continuous exposure to test compounds in Osteosarcoma 143B tumor cell lines. It is filed as functional. The settings on record: Homo sapiens.
Test [3] in a line: Inhibition of growth after 72 hr continuous exposure to test compounds in colon HT-29 tumor cell lines. It is filed as functional. The settings on record: Homo sapiens, HT-29, 72 h.
Test [4] in a line: Inhibition of growth after 72 hr continuous exposure to test compounds in Ovarian A2780 tumor cell lines. The conditions noted are these: A2780, 72 h. It is filed as functional.
Test [5] in a line: Exogenous inhibition concentration of Serine/threonine protein phosphatase 2B (PP2B).
Test [6] can be described thus: Exogenous inhibition of Serine/threonine protein phosphatase 1 (PP1). More on the design: species or system Homo sapiens.
The nature of test [7]: Inhibition of growth after 72 hr continuous exposure to test compounds in Ovarian ADDP tumor cell lines. It is filed as functional.
The next test deals with L1210. As to the kind of experiment: Reduction of tumor cell growth to 50% in Fostriecin analogues in L1210 Leukemia cell lines. The class given is functional. The settings on record: Mus musculus.
A further test relates to HCT-8. Briefly: Reduction of tumor cell growth to 50% in Fostriecin analogues in HCT-8 colon cancer cell lines. The settings on record: Homo sapiens. It is filed as functional.
The nature of test [8]: Exogenous inhibition concentration of Serine/threonine protein phosphatase 2A (PP2A).
A short description of test [9]: Exogenous inhibition concentration of Serine/threonine protein phosphatase 2C (PP2C); NI means no inhibition.

The GI50 is the concentration at which growth is held to half of that of the control. By IC50 is commonly meant the concentration that gives 50% inhibition.

As to `C[C@@]12C(=O)OC(=O)[C@]1(C)[C@H]1CC[C@@H]2O1` [CANTHARIDIN], the GI50 stood at 9 µM in [1]; 10 µM in test [2]; 6.4 µM in [3]; 10 µM in test [4]; 11 µM in test [7]. The IC50 in test [5] is more than 1000 µM; in test [6], 0.5 µM.

Molecule `Cn1cc2c3c1C(=O)C1=C(C3=NCC2)C2(C=C(Br)C(=O)C(Br)=C2)CCN1` [DISCORHABDIN] showed an IC50 in test [5] of 1.15 µM.

As to `CCCOC1OC(=O)[C@H]2[C@@H]1[C@@H]1CC[C@H]2O1` (stereo partly drawn), the concentration for 50% growth inhibition (GI50) in [1] was 195 µM; in test [2], more than 1000 µM; in test [3], 41 µM; in test [4] it was 375 µM; in test [7], 535 µM.

As to `C/C=C/C=C\C=C/[C@H](O)C[C@@H](OP(=O)(O)O)[C@](C)(O)/C=C/[C@H]1CC=CC(=O)O1`, the GI50 with L1210 is 0.22 µM; with HCT-8 it was 1.5 µM.

For `COC(=O)C1C(C(=O)O)C2CC[C@H]1O2` (stereo partly drawn), the GI50 stood at 76 µM in test [1]; 118 µM in [2]; 105 µM in test [3]; 100 µM in [4]; 180 µM in test [7].

Turning to `C[C@]12C(=O)OC(=O)[C@H]1C1CC[C@H]2O1` [PALASONIN], the values for the IC50 in test [6] and in test [8] were 0.7 µM and 0.12 µM, respectively.

As for `C/C=C1/C(=O)C[C@@H](C(=O)O)[C@H](C)C(=O)N[C@@H](C(C)C)C(=O)N[C@@H](/C=C/C(C)=C/[C@H](C)[C@H](Cc2ccccc2)OC)[C@H](C)C(=O)N[C@@H](C(=O)O)CCC(=O)N1C`, the IC50 result in test [9] is “no inhibition”; in [5], 8700 µM; in [6], 0.0018 µM.

The molecule `CC[C@@H](C)[C@H]1NC(=O)[C@H]([C@@H](C)CC)NC(=O)[C@H]([C@@H](C)CC)NC(=O)[C@H]([C@@H](C)CC)NC(=O)[C@@H](Cc2ccccc2)NC(=O)[C@H](Cc2ccccc2)NC(=O)[C@@H]2CCCN2C(=O)[C@@H]2CCCN2C(=O)[C@H](C(C)C)NC1=O` yielded an IC50 in test [5] of 5 µM.

On to `C[C@@](O)(/C=C/COC(=O)/C=C\CO)[C@@H](C[C@@H](O)\C=C/C=C\C=C\CO)OP(=O)(O)O`, for which the GI50 in the test with L1210 was more than 1 µM; in the test with HCT-8, 56 µM.

As for `C[C@@](O)(/C=C/[C@H]1CC=CC(=O)O1)[C@H](O)C[C@@H](O)\C=C/C=C\C=C\CO`, the GI50 came to 2.5 µM in the test with L1210 and 3.7 µM with HCT-8.

`C[C@@](O)(/C=C/[C@@H]1OC(=O)C=CC1O)[C@@H](C[C@@H](O)\C=C/C=C\C=C\CO)OP(=O)(O)O` (stereo partly drawn): the figures for the GI50 in the test on L1210 and with HCT-8 were 0.83 µM and 4.2 µM, respectively.

For `C=CC[C@@H]1/C=C(\C)C[C@H](C)C[C@H](OC)[C@H]2O[C@@](O)(C(=O)C(=O)N3CCCC[C@H]3C(=O)O[C@H](/C(C)=C/[C@@H]3CC[C@@H](O)[C@H](OC)C3)[C@H](C)[C@@H](O)CC1=O)[C@H](C)C[C@@H]2OC` [TACROLIMUS ANHYDROUS], in [5], the IC50 was found to be 0.0005 µM.

On to `CCOC1OC(=O)[C@H]2[C@@H]1[C@@H]1CC[C@H]2O1` (stereo partly drawn), for which the GI50 in test [1] was found to be 80 µM; in [2], 103 µM; in [3], 26 µM; in test [4] it was 100 µM; in test [7], 107 µM.

As for `CC1(C(=O)O)C2CCC(O2)C1(C)C(=O)O` (stereo not drawn), the IC50 in test [6] is 0.6 µM; in test [8], 0.05 µM.

With `CCCOC(=O)C1C(C(=O)O)C2CC[C@H]1O2` (stereo partly drawn), the GI50 in test [1] came to 75 µM; in test [2], 450 µM; in [3], 15 µM; in [4], 110 µM; in test [7] it was 315 µM.

On to `C[C@@](O)(/C=C/[C@H]1CC=CC(=O)O1)[C@@H](C[C@@H](O)\C=C/C=C\C=C\CO)OP(=O)(O)O` [FOSTRIECIN], for which the figures for the 50% growth inhibitory concentration (GI50) with L1210 and in the test on HCT-8 were 0.21 µM and 2.3 µM, respectively. The molecule further displayed an IC50 in [6] of 131 µM.
